Structures can show the parent of a compound that is named as a salt.
Target: T1, ferroportin (Fpn) (Mus musculus, UniProt Q9JHI9)
T1 construct: endogenous in cells; host or cells: J774 mouse macrophage cell line, induced with Fe(III)NTA
T1 sequence (Q9JHI9 1-570): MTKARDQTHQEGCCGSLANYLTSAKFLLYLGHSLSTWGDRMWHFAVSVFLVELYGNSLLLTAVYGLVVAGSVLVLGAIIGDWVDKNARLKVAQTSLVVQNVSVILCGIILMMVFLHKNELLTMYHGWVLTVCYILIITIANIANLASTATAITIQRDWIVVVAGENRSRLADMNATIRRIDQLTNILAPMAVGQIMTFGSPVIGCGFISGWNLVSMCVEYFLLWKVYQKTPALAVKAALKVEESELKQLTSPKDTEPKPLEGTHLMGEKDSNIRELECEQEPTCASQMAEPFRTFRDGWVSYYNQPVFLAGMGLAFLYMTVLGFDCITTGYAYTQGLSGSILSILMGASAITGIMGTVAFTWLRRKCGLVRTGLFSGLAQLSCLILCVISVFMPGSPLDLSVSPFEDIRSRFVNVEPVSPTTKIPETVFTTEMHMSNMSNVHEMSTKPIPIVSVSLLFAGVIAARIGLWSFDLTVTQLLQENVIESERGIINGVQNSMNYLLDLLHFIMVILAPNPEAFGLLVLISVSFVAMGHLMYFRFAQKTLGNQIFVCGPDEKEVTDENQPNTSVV
Assay: Hepcidin Internalization Assay (J774)
Type: cell-based
Conditions: J774 cells, 25 nM TMR-hepcidin, 2 hours; average of multiple measurements; read-out: Average (AVE) IC50 of Fpn inhibitors in the hepcidin internalization assay
Text: This cellular assay allows quantification of the binding of hepcidin to ferroportin (Fpn) through microscopic detection of internalization of a fluorescently labeled hepcidin into J774 cells. […] Binding of hepcidin to Fpn triggers internalization and degradation of both hepcidin and Fpn. […] Therefore, microscopic detection of cell-associated TMR fluorescence is a measure of hepcidin binding to Fpn and internalization of hepcidin and Fpn. If TMR-hepcidin is prevented from binding to Fpn, cellular TMR fluorescence remains low (Durrenberger et al, 2013). The effect of small molecular weight Fpn inhibitor compounds in this assay was evaluated in vitro as described below. […] Cat. 655090) and grown at 37° C. with 5% CO2. After overnight incubation, cells were washed 3 times with pre-warmed DMEM w/o phenol red, 30 μl/well of DMEM w/o phenol red was added after the final wash and 10 μl/well of dilution series of test compounds were added in triplicates. […] Cells were incubated in a total volume of 50 μl at 37° C. with 5% CO2 for 2 hours, then Hoechst 33342 dye was added to a final concentration of 0.5 μg/ml to stain nuclei and further incubated for 10 min. at 37° C. with 5% CO2. […] After removal of the paraformaldehyde solution, cells were washed 3 times with PBS leaving 100 μl per well and the plates were sealed with foil plate seal. […] The acquired image data was analysed with the […] analysis software. […] IC50 values were calculated with the Sum(Mean) raw data using “log(inhibitor) vs. response” curve fitting of Prism 5 software (GraphPad Software Inc., version 5.02). For each data set the fit of the “log(inhibitor) vs. response (three parameters)” model was compared to the fit of the “log(inhibitor) vs. response-Variable slope (four parameters)” model and the IC50 data of the preferred model was used.

Row | IC50 | SMILES
1 | 0.028 µM | Fc1cccnc1CNc1nccc2oc(CCNCCc3nc4ccccc4n3Cc3cccc(Cl)c3)nc12 [Example Compound No. 12, 2-(2-((2-(1-(3-chlorobenzyl)-1H-benzo[d]imidazol-2-yl)ethyl)amino)ethyl)-N-((3-fluoropyridin-2-yl)methyl)oxazolo[4,5-c]pyridin-4-amine]
2 | 0.005 µM | Fc1cccnc1CNc1nccc2oc(CCNCCc3nc4cc5c(cc4n3CC3CC3)OCCO5)nc12 [Example Compound No. 13, 2-(2-((2-(1-(cyclopropylmethyl)-6,7-dihydro-1H-[1,4]dioxino[2′,3′:4,5]benzo[1,2-d]-imidazol-2-yl)ethyl)amino)ethyl)-N-((3-fluoropyridin-2-yl)methyl)oxazolo[4,5-c]pyridin-4-amine]
3 | 0.81 µM | CN(C)CCn1c(CCNCCc2nc3c(NCc4ncccc4F)nccc3o2)nc2cc3c(cc21)OCCO3 [Example Compound No. 14, 2-(2-((2-(1-(2-(dimethylamino)ethyl)-6,7-dihydro-1H-[1,4]dioxino[2′,3′:4,5]benzo[1,2-d]imidazol-2-yl)ethyl)amino)ethyl)-N-((3-fluoropyridin-2-yl)methyl)oxazolo[4,5-c]pyridin-4-amine]
4 | 9.5 µM | Fc1cccnc1CNc1nccc2oc(CCNCCc3nc4ccccc4n3Cc3ccccn3)nc12 [Example Compound No. 15, N-((3-fluoropyridin-2-yl)methyl)-2-(2-((2-(1-(pyridin-2-ylmethyl)-1H-benzo[d]imidazol-2-yl)ethyl)amino)ethyl)oxazolo[4,5-c]pyridin-4-amine]
5 | 40.2 µM | Fc1cccnc1CNc1nccc2oc(CCNCCc3nc4ccccc4n3CCc3ccccc3)nc12 [Example Compound No. 16, N-((3-fluoropyridin-2-yl)methyl)-2-(2-((2-(1-phenethyl-1H-benzo[d]imidazol-2-yl)ethyl)amino)ethyl)oxazolo[4,5-c]pyridin-4-amine]
6 | 0.025 µM | Fc1cccnc1CNc1nccc2oc(CCNCCc3nc4ccccc4n3-c3ccccc3)nc12 [Example Compound No. 17, N-((3-fluoropyridin-2-yl)methyl)-2-(2-((2-(1-phenyl-1H-benzo[d]imidazol-2-yl)ethyl)amino)ethyl)oxazolo[4,5-c]pyridin-4-amine]
7 | 20 µM | CN1CCN(CCn2c(CCNCCc3nc4c(NCc5ncccc5F)nccc4o3)nc3cc4c(cc32)OCCO4)CC1 [Example Compound No. 18, N-((3-fluoropyridin-2-yl)methyl)-2-(2-((2-(1-(2-(4-methylpiperazin-1-yl)ethyl)-6,7-dihydro-1H-[1,4]dioxino[2′,3′:4,5]benzo[1,2-d]imidazol-2-yl)ethyl)amino)ethyl)oxazolo[4,5-c]pyridin-4-amine]
8 | 0.018 µM | CCn1c(CCNCCc2nc3c(NCc4ncccc4F)nccc3o2)nc2ccccc21 [Example Compound No. 19, 2-(2-((2-(1-ethyl-1H-benzo[d]imidazol-2-yl)ethyl)amino)ethyl)-N-((3-fluoropyridin-2-yl)methyl)oxazolo[4,5-c]pyridin-4-amine]
9 | 20 µM | CN(C)CCn1c(CCNCCc2nc3c(NCc4ncccc4F)nccc3o2)nc2ccccc21 [Example Compound No. 20, 2-(2-((2-(1-(2-(dimethylamino)ethyl)-1H-benzo[d]imidazol-2-yl)ethyl)amino)ethyl)-N-((3-fluoropyridin-2-yl)methyl)oxazolo[4,5-c]pyridin-4-amine]
10 | 0.031 µM | CCn1c(CCNCCc2nc3c(NCc4ncccc4F)nccc3o2)nc2cc3c(cc21)OCCO3 [Example Compound No. 21, 2-(2-((2-(1-ethyl-6,7-dihydro-1H-[1,4]dioxino[2′,3′:4,5]benzo[1,2-d]imidazol-2-yl)ethyl)amino)ethyl)-N-((3-fluoropyridin-2-yl)methyl)oxazolo[4,5-c]pyridin-4-amine formate]
11 | 0.04 µM | Cn1c(CCNCCc2nc3c(NCc4ncccc4F)nccc3o2)nc2ccccc21 [Example Compound No. 22, N-((3-fluoropyridin-2-yl)methyl)-2-(2-((2-(1-methyl-1H-benzo[d]imidazol-2-yl)ethyl)amino)ethyl)oxazolo[4,5-c]pyridin-4-amine formate]
12 | 0.018 µM | Fc1cccnc1CNc1nccc2oc(CCNCCc3nc4cc5c(cc4n3-c3ccccc3)OCCO5)nc12 [Example Compound No. 23, N-((3-fluoropyridin-2-yl)methyl)-2-(2-((2-(1-phenyl-6,7-dihydro-1H-[1,4]dioxino[2′,3′:4,5]benzo[1,2-d]imidazol-2-yl)ethyl)amino)ethyl)oxazolo[4,5-c]pyridin-4-amine formate]
